Measurements taken from patent US6521239B1, “Cosmetic composition containing at least one auxin and its use” (Societe L'Oreal S.A., priority 1997, dated 2003).

System: reconstructed human epidermis
Assay: incorporation of 14C-acetate into total lipids in reconstructed human epidermis (Skinethic)
Format: cell-based
Settings: for percentage of stimulation (incorporation of 14C-acetate, total lipid synthesis): untreated cells = 100
Description: Study of the effect of β-naphthoxyacetic acid on the synthesis of the total lipids of the skin.
The study is carried out by measuring the incorporation of acetate labelled with carbon-14 in models of reconstructed human epidermis sold by the company Skinethic, the total lipids composition of which is close to that of normal human epidermis.
The reconstructed human epidermis is cultured according to the supplier's recommendations.
β-Naphthoxyacetic acid, at concentrations of 10^−5, 10^−6, and 10^−7 M, is placed in contact for 72 hours with reconstructed human epidermides, after culturing the latter for 14 days under the conditions recommended by the supplier. The labelling with ^14C-acetate (sodium [2-^14C]-acetate sold by Amersham, 59 mci/mmol) is carried out 24 hours after placing the test product in contact with the culture, i.e. during the final 48 hours of culturing, at a rate of 0.5 μCi of ^14C-acetate per culture.
At the end of culturing, after washing the epidermides with phosphate buffer (PBS), the epidermides are dissociated and the cells are lysed with 0.5 M perchloric acid from ice. The lysates then undergo an extraction with a methanol/chloroform mixture (2:1), a centrifugation and a re-extraction of the pellets obtained, under the same conditions as above. The lipids are separated by addition of PBS and chloroform (Blight-Byer technique). The organic phase containing the lipids is taken and the radioactivity incorporated into this phase is determined by liquid scintillation. The organic phase is then dried under a flow of nitrogen. A thin layer chromatography on plates on plates (Merck K60) using, as eluent, a chloroform/methanol/water mixture (50:18:2.6) to separate the phospholipids, or a hexane/ether/acetic acid mixture (15:5.6:0.19) to separate the neutral lipids.
The plates are then autoradiographed for 24 hours and the chromatograms are analysed by densitometry using the One-D-Scan software from the company Scanalytics.
The results are evaluated relative to a control consisting of cells which have not been treated with β-naphthoxyacetic acid.
A positive control (10^−4 M trifluoperazine), which is known to stimulate lipid synthesis, and an negative control (10^−6 M retinoic acid) are introduced into the test by way of reference.

SMILES	percentage of stimulation (incorporation of 14C-acetate, total lipid synthesis) (10^−4 M, positive control)	percentage of stimulation (incorporation of 14C-acetate, total lipid synthesis) (10^−6 M, 72 hours contact)	percentage of stimulation (incorporation of 14C-acetate, total lipid synthesis) (10^−5 M, 72 hours contact)	effect on incorporation of acetate / lipid synthesis (in words) (10^−5 to 10^−7 M, reconstructed human epidermis)	percentage of stimulation (incorporation of 14C-acetate, total lipid synthesis) (10^−7 M, 72 hours contact)
CN1CCN(CCCN2c3ccccc3Sc3ccc(C(F)(F)F)cc32)CC1 [Trifluoroperazine, trifluoperazine, reference compound]	122%	–	–	–	–
CC1=C(/C=C/C(C)=C/C=C/C(C)=C/C(=O)O)C(C)(C)CCC1 [Retinoic acid, retinoic acid, reference compound]	–	82%	–	–	–
O=C(O)COc1ccc2ccccc2c1 [β-Naphthoxyacetic acid]	–	113%	110%	significantly stimulates the incorporation of acetate	116%
